Laboratory results reported in ChEMBL document CHEMBL2074165, “Evaluation of an immortalized retinal endothelial cell line as an in vitro model for drug transport studies across the blood-retinal barrier” (Pharm Res, 2003).

Molecular target: ATP-dependent translocase ABCB1 (Homo sapiens, UniProt P08183)
Experiment: TP_TRANSPORTER: transepithelial transport (basal to apical) of AGN 197075 at a concentration of 10 uM in MDR1-expressing MDCK cells
Assay type: functional, cell-based
Details: dog

ATP-dependent translocase ABCB1, sequence (P08183 whole entry): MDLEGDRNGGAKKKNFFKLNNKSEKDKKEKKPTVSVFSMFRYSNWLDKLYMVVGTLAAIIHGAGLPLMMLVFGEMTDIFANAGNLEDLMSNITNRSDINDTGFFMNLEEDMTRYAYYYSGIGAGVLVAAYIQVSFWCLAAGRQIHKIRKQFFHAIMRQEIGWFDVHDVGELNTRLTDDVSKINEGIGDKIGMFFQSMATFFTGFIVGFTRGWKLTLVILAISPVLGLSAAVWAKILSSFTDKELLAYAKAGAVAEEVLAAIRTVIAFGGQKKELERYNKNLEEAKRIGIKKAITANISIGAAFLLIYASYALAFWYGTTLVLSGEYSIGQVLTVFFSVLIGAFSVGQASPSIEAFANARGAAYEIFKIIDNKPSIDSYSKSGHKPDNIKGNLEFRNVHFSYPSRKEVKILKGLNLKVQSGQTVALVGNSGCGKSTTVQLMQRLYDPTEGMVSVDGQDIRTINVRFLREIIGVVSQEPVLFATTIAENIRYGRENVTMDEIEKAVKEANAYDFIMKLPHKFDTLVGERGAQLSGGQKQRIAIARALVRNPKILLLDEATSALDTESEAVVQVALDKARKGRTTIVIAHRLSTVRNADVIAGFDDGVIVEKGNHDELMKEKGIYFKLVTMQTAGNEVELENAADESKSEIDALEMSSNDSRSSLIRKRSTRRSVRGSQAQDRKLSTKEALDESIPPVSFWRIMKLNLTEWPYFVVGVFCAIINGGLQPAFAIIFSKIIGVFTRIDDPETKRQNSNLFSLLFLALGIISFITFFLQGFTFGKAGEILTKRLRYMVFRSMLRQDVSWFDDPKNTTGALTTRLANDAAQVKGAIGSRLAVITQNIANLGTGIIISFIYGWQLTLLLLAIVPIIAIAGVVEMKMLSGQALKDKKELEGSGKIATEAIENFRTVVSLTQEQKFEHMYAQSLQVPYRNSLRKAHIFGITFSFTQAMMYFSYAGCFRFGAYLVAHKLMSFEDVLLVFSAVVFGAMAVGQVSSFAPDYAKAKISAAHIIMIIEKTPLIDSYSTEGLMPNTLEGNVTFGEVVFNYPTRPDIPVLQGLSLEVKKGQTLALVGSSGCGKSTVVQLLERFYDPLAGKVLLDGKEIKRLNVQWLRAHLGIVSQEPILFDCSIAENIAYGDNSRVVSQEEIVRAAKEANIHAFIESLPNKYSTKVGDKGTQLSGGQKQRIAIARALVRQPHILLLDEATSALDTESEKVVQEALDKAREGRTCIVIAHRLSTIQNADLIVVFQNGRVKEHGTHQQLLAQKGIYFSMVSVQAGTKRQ

OCCNC(=S)NCc1cccc(Cl)c1F
Activity: substrate [+]
